Data: the supplement of paper PMC10307832

Key:
Assay in all cases: relative viability (nuclei count vs DMSO), 5 days (fraction); higher = more cells survive
[1] = compound: C1=CC=C(C(=C1)C2=CC=C(C=C2)C3=CSC4=C3C(=C(C(=O)N4)C#N)O)O + Cc1nc(NC(=O)N2CCC[C@H]2C(N)=O)sc1-c1ccnc(C(C)(C)C(F)(F)F)c1 [Alpelisib] (partner 2 µM)
How it was run: (§1)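 Nuclei were stained with Hoechst during a one-step fixation (final 0.05% Triton X-100, 1% formaldehyde, 1 ug/ml Hoechst) carried out 5 days after dosing, then counted on 4× images. The cells, lung cancer lines in 1536-well plates, had been dosed by pin tool the day after seeding with one drug alone or a fixed anchor-drug dose plus five library-drug doses (not always all listed) in √10 steps. Relative viability is the nuclei count in treated wells divided by that in vehicle wells, and each value is the median of duplicate plates.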

TGX 221 + Lapatinib = compound: CC1=CN2C(=O)C=C(N=C2C(=C1)C(C)NC3=CC=CC=C3)N4CCOCC4 [TGX 221] + CS(=O)(=O)CCNCc1ccc(-c2ccc3ncnc(Nc4ccc(OCc5cccc(F)c5)c(Cl)c4)c3c2)o1 [Lapatinib] (partner 2 µM)
How it was run: as §1

[2] = compound: C1=CC=C(C(=C1)C2=CC=C(C=C2)C3=CSC4=C3C(=C(C(=O)N4)C#N)O)O + O=C(c1cc(Cc2n[nH]c(=O)c3ccccc23)ccc1F)N1CCN(C(=O)C2CC2)CC1 [Olaparib] (partner 8 µM)
How it was run: as §1

TGX 221 + Trametinib = compound: CC1=CN2C(=O)C=C(N=C2C(=C1)C(C)NC3=CC=CC=C3)N4CCOCC4 [TGX 221] + CC(=O)Nc1cccc(-n2c(=O)n(C3CC3)c(=O)c3c(Nc4ccc(I)cc4F)n(C)c(=O)c(C)c32)c1 [Trametinib] (partner 0.02 µM)
How it was run: as §1

Row | Cell Line | relative viability ([1]; first compound 0.08 µM) | relative viability ([1]; first compound 0.253 µM) | relative viability ([1]; first compound 0.8 µM) | relative viability ([1]; first compound 2.53 µM) | relative viability ([1]; first compound 8 µM) | relative viability (TGX 221 + Lapatinib; first compound 0.08 µM) | relative viability (TGX 221 + Lapatinib; first compound 0.253 µM) | relative viability (TGX 221 + Lapatinib; first compound 0.8 µM) | relative viability (TGX 221 + Lapatinib; first compound 2.53 µM) | relative viability (TGX 221 + Lapatinib; first compound 8 µM) | relative viability ([2]; first compound 0.08 µM) | relative viability ([2]; first compound 0.253 µM) | relative viability ([2]; first compound 0.8 µM) | relative viability ([2]; first compound 2.53 µM) | relative viability ([2]; first compound 8 µM) | relative viability (TGX 221 + Trametinib; first compound 0.08 µM) | relative viability (TGX 221 + Trametinib; first compound 0.253 µM) | relative viability (TGX 221 + Trametinib; first compound 0.8 µM) | relative viability (TGX 221 + Trametinib; first compound 2.53 µM) | relative viability (TGX 221 + Trametinib; first compound 8 µM)
1 | ABC-1 | 1.09 | 1.08 | 1.08 | 0.878 | 1.01 | 0.987 | 1.14 | 1.12 | 1.24 | 1.09 | 0.856 | 1.22 | 1.06 | 0.701 | 0.829 |  |  |  |  | 
2 | NCI-H1563 | 0.783 | 1.03 | 0.991 | 0.832 | 0.998 | 0.922 | 0.871 | 0.791 | 0.851 | 0.796 |  |  |  |  |  |  |  |  |  | 
3 | NCI-H1355 | 0.927 | 1 | 0.899 | 0.829 | 0.663 | 1.07 | 0.964 | 0.859 | 0.95 | 0.852 | 0.734 | 0.956 | 0.745 | 0.775 | 0.553 | 0.448 | 0.396 | 0.406 | 0.359 | 0.302
4 | NCI-H2228 | 0.585 | 0.927 | 0.712 | 0.803 | 0.816 | 0.948 | 1.46 | 0.909 | 0.759 | 0.751 | 0.425 | 0.604 | 0.568 | 0.613 | 0.575 | 0.518 | 0.526 | 0.801 | 0.379 | 0.489
5 | LXF-289 | 1.02 | 0.969 | 1.06 | 1.05 | 0.965 | 0.933 | 0.889 | 0.955 | 0.904 | 0.885 | 1.1 | 1.24 | 0.958 | 1.01 | 1.02 | 0.67 | 0.757 | 0.708 | 0.674 | 0.744
6 | NCI-H2085 | 0.872 | 1.08 | 1 | 0.973 | 0.879 | 0.666 | 0.644 | 0.681 | 0.469 | 0.462 | 0.754 | 0.847 | 0.771 | 0.796 | 0.702 | 0.505 | 0.351 | 0.374 | 0.286 | 0.276
7 | NCI-H2342 |  |  |  |  |  |  |  |  |  |  | 0.475 | 0.53 | 0.432 | 0.517 | 0.395 | 0.814 | 0.763 | 0.8 | 0.632 | 0.93
8 | EMC-BAC-2 | 0.711 | 0.73 | 0.748 | 0.821 | 0.697 | 0.841 | 0.83 | 0.894 | 0.903 | 0.874 | 0.48 | 0.58 | 0.438 | 0.484 | 0.496 | 0.826 | 1.02 | 0.897 | 0.864 | 0.792
9 | IA-LM | 0.549 | 0.879 | 0.626 | 0.75 | 0.374 | 0.783 | 0.797 | 0.979 | 1.01 | 0.612 | 0.799 | 0.967 | 0.9 | 0.799 | 0.771 |  |  |  |  | 
10 | A549 | 0.733 | 1.14 | 0.908 | 0.707 | 0.604 | 0.939 | 0.914 | 0.966 | 1.04 | 0.748 | 0.275 | 0.208 | 0.314 | 0.375 | 0.379 |  |  |  |  | 
11 | NCI-H3122 | 0.795 | 0.909 | 0.89 | 0.844 | 0.902 | 1.01 | 0.994 | 1.02 | 1.01 | 0.985 | 0.715 | 0.675 | 0.573 | 0.645 | 0.45 | 0.244 | 0.188 | 0.224 | 0.211 | 0.257
12 | LC-2-ad | 0.803 | 0.943 | 1 | 1 | 0.965 | 0.943 |  | 0.972 | 1.01 | 0.978 | 0.702 | 0.899 | 0.701 | 0.744 | 0.76 | 0.846 | 0.906 | 0.927 | 0.885 | 0.858
13 | NCI-H1650 |  |  |  |  |  | 0.654 | 0.64 | 0.617 | 0.759 | 0.581 | 0.716 | 1.03 | 0.742 | 0.759 | 0.645 | 0.456 | 0.655 | 0.669 | 0.596 | 0.416
14 | NCI-H1299 | 1.01 | 1.08 | 1.14 | 1.08 | 0.699 | 0.987 | 0.99 | 0.978 | 1.03 | 0.894 | 1.01 | 0.992 | 0.959 | 0.942 | 0.967 |  |  |  |  | 
15 | SW 900 |  |  |  |  |  |  |  |  |  |  |  | 1.13 | 0.869 | 0.903 | 0.839 |  | 0.613 | 0.871 | 0.575 | 0.5
16 | NCI-H1703 | 0.31 | 0.313 | 0.328 | 0.301 | 0.385 | 1.02 | 0.974 | 0.95 | 0.859 | 0.757 | 0.422 | 0.417 | 0.682 | 0.336 | 0.362 |  |  |  |  | 
17 | NCI-H522 |  |  |  |  |  |  |  |  |  |  | 0.567 | 0.674 | 0.778 | 0.56 | 0.645 | 0.658 | 0.822 | 0.719 | 0.623 | 0.661
18 | Calu-6 | 1.15 | 0.993 | 1.11 | 1.01 | 1.09 | 0.929 | 0.916 | 1.04 | 1.17 | 0.962 | 0.721 | 0.595 | 0.643 | 0.63 | 0.615 |  |  |  |  | 
19 | EBC-1 | 0.885 | 0.877 | 0.721 | 0.865 | 0.712 | 0.203 | 0.212 | 0.203 | 0.226 | 0.234 | 0.741 | 0.701 | 0.664 | 0.719 | 0.587 |  |  |  |  | 
20 | NCI-H441 |  | 0.773 |  | 0.75 | 0.816 |  |  |  |  |  | 0.548 | 0.539 | 0.64 | 0.716 | 0.462 | 0.416 | 0.473 | 0.45 | 0.371 | 0.354
